In PMC5638823, “Structural insights into the competitive inhibition of the ATP-gated P2X receptor channel” (Nature Communications, 2017):

Molecular target: T1, chicken P2X7 receptor (ckP2X7 WT) (Gallus gallus, UniProt A0A8V1A1T0)
T1 construct: gene P2RX7; ckP2X7 WT (NCBI XP_001235163), expressed in HEK-293 cells
Format: cell-based

T1 sequence (A0A8V1A1T0 entry or part of it): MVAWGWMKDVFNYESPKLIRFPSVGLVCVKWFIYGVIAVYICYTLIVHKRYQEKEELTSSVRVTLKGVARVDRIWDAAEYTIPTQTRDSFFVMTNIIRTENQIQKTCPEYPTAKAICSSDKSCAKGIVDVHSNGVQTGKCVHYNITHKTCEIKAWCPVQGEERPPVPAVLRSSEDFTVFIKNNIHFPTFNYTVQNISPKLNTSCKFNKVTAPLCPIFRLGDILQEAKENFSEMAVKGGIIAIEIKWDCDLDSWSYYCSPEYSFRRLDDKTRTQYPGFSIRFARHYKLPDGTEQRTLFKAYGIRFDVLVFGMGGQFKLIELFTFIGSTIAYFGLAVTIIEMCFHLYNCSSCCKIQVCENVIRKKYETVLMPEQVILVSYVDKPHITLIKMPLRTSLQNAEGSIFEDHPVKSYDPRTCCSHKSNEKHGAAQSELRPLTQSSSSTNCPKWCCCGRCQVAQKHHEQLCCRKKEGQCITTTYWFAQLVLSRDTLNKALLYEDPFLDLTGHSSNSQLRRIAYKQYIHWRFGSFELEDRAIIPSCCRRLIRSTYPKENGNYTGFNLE

## Nc1ncnc2c1ncn2[C@@H]1O[C@H](COP(=O)(O)OP(=O)(O)OP(=O)(O)O)[C@@H](O)[C@H]1O [ATP]
  whole-cell patch clamp, ATP-evoked currents in transfected HEK-293 cells: ATP activated biphasic currents and TNP-ATP blocked ATP-dependent currents
